From US20070049564A1 (Wyeth, priority 2005, published 2007)
Converted amounts (≈) assume the structure as drawn.

What was measured:
Assay in all cases: MIC, broth microdilution
Salmonella spp. GC 235 = system: Salmonella spp. GC 235
Salmonella spp. GC 566 = settings: Salmonella
S. cholerasius GC 1355 = system: S. cholerasius GC 1355
[1] = Salmonella, SPP.GC235, Salmonella spp. GC 235, Mouse Serum pre-incubation
[2] = Salmonella, SPP.GC235, Salmonella spp. GC 235, Water pre-incubation
[3] = SPP.GC566, Salmonella spp. GC 566, Mouse Serum pre-incubation
[4] = SPP.GC566, Salmonella spp. GC 566, Water pre-incubation
[5] = S. cholerasius GC 1355, Mouse Serum pre-incubation
[6] = S. cholerasius GC 1355, Water pre-incubation

SMILES	MIC (Salmonella spp. GC 235; [1]) [µg/mL]	MIC (Salmonella spp. GC 235; [2]) [µg/mL]	MIC (Salmonella spp. GC 566; [3]) [µg/mL]	MIC (Salmonella spp. GC 566; [4]) [µg/mL]	MIC (S. cholerasius GC 1355; [5]) [µg/mL]	MIC (S. cholerasius GC 1355; [6]) [µg/mL]	MIC (Salmonella spp. GC 235; Salmonella, SPP.GC235, pre-incubation in mouse serum) [µg/mL]	MIC (Salmonella spp. GC 235; Salmonella, SPP.GC235, pre-incubation in water) [µg/mL]	MIC (Salmonella spp. GC 235; pre-incubation in water) [UG/ML]	MIC (Salmonella spp. GC 566; SPP.GC566, pre-incubation in mouse serum) [µg/mL]	MIC (Salmonella spp. GC 566; SPP.GC566, pre-incubation in water) [µg/mL]	MIC (S. cholerasius GC 1355; pre-incubation in mouse serum) [µg/mL]	MIC (S. cholerasius GC 1355; pre-incubation in water) [µg/mL]
CCCN(CC(=O)Nc1cc(N(C)C)c2c(c1O)C(=O)C1=C(O)[C@]3(O)C(=O)C(C(N)=O)=C(O)[C@@H](N(C)C)[C@@H]3C[C@@H]1C2)C(=O)OCOC(=O)Cc1ccccc1 [Example 11, ({[(2-{[(5aR,6aS,7S,10aS)-9-(aminocarbonyl)-4,7-bis(dimethylamino)-1,8,10a,11′-tetrahydroxy-10,12-dioxo-5,5a,6,6a,7,10,10a,12-octahydrotetracen-2-yl]amino}-2-oxoethyl)(propyl)amino]carbonyl}oxy)methyl phenylacetate]	0.5 (≈ 0.655 µM)	64 (≈ 83.8 µM)	2 (≈ 2.62 µM)	> 64	32 (≈ 41.9 µM)	> 64	–	–	–	–	–	–	–
CCCCN(CC(=O)Nc1cc(N(C)C)c2c(c1O)C(=O)C1=C(O)[C@]3(O)C(=O)C(C(N)=O)=C(O)[C@@H](N(C)C)[C@@H]3C[C@@H]1C2)C(=O)OCOC(=O)Cc1ccccc1 [Example 12, ({[(2-{[(5aR,6aS,7S,10aS)-9-(aminocarbonyl)-4,7-bis(dimethylamino)-1,8,10a,11-tetrahydroxy-10,12-dioxo-5,5a,6,6a,7,10,10a,12-octahydrotetracen-2-yl]amino}-2-oxoethyl)(butyl)amino]carbonyl}oxy)methyl phenylacetate]	1 (≈ 1.29 µM)	64 (≈ 82.3 µM)	4 (≈ 5.14 µM)	> 64	16 (≈ 20.6 µM)	> 64	–	–	–	–	–	–	–
CCCCN(CC(=O)Nc1cc(N(C)C)c2c(c1O)C(=O)C1=C(O)[C@]3(O)C(=O)C(C(N)=O)=C(O)[C@@H](N(C)C)[C@@H]3C[C@@H]1C2)C(=O)OCOC(=O)C(C)(C)C [Example 13, ({[(2-{[(5aR,6aS,7S,10aS)-9-(aminocarbonyl)-4,7-bis(dimethylamino)-1,8,10a,11-tetrahydroxy-10,12-dioxo-5,5a,6,6a,7,10,10a,12-octahydrotetracen-2-yl]amino}-2-oxoethyl)(butyl)amino]carbonyl}oxy)methyl pivalate]	2 (≈ 2.69 µM)	16 (≈ 21.5 µM)	8 (≈ 10.8 µM)	64 (≈ 86 µM)	16 (≈ 21.5 µM)	> 64	–	–	–	–	–	–	–
CCCN(CC(=O)Nc1cc(N(C)C)c2c(c1O)C(=O)C1=C(O)[C@]3(O)C(=O)C(C(N)=O)=C(O)[C@@H](N(C)C)[C@@H]3C[C@@H]1C2)C(=O)OCc1ccccc1 [Example 14, benzyl 2-{[(5aR,6aS,7S,10aS)-9-(aminocarbonyl)-4,7-bis(dimethylamino)-1,8,10a,11-tetrahydroxy-10,12-dioxo-5,5a,6,6a,7,10,10a,12-octahydrotetracen-2-yl]amino}-2-oxoethyl(propyl)carbamate]	> 64	> 64	> 64	> 64	> 64	> 64	–	–	–	–	–	–	–
CCCN(CC(=O)Nc1cc(N(C)C)c2c(c1O)C(=O)C1=C(O)[C@]3(O)C(=O)C(C(N)=O)=C(O)[C@@H](N(C)C)[C@@H]3C[C@@H]1C2)C(=O)OCC [Example 15, ethyl 2-{[(5aR,6aS,7S,10aS)-9-(aminocarbonyl)-4,7-bis(dimethylamino)-1,8,10a,11-tetrahydroxy-10,12-dioxo-5,5a,6,6a,7,10,10a,12-octahydrotetracen-2-yl]amino}-2-oxoethyl(propyl)carbamate]	> 64	> 64	> 64	> 64	> 64	> 64	–	–	–	–	–	–	–
CCCN(CC(=O)Nc1cc(N(C)C)c2c(c1O)C(=O)C1=C(O)[C@]3(O)C(=O)C(C(N)=O)=C(O)[C@@H](N(C)C)[C@@H]3C[C@@H]1C2)C(=O)OCC(C)C [Example 16, isobutyl 2-{[(5aR,6aS,7S,10aS)-9-(aminocarbonyl)-4,7-bis(dimethylamino)-1,8,10a,11-tetrahydroxy-10,12-dioxo-5,5a,6,6a,7,10,10a,12-octahydrotetracen-2-yl]amino}-2-oxoethyl(propyl)carbamate]	> 64	> 64	> 64	> 64	> 64	> 64	–	–	–	–	–	–	–
CCCCN(CC(=O)Nc1cc(N(C)C)c2c(c1O)C(=O)C1=C(O)[C@]3(O)C(=O)C(C(N)=O)=C(O)[C@@H](N(C)C)C3CC1C2)C(=O)OCc1oc(=O)oc1C (stereo partly drawn) [Example 109, (5-methyl-2-oxo-1,3-dioxol-4-yl)methyl 2-{[(7S,10aS)-9-(aminocarbonyl)-4,7-bis(dimethylamino)-1,8,10a,11-tetrahydroxy-10,12-dioxo-5,5a,6,6a,7,10,10a,12-octahydrotetracen-2-yl]amino}-2-oxoethyl(butyl)carbamate]	–	–	–	–	–	–	1 (≈ 1.35 µM)	2 (≈ 2.7 µM)	4	2 (≈ 2.7 µM)	4 (≈ 5.39 µM)	8 (≈ 10.8 µM)	32 (≈ 43.1 µM)
